Measured values as given in patent US7915270B2, “Oxazole ketones as modulators of fatty acid amide hydrolase” (The Scripps Research Institute, priority 2006, dated 2011).

Biological target: T1, Rat FAAH (Rattus norvegicus, UniProt P97612)
T1 construct: expressed in transfected cells
T1 sequence (P97612 1-579): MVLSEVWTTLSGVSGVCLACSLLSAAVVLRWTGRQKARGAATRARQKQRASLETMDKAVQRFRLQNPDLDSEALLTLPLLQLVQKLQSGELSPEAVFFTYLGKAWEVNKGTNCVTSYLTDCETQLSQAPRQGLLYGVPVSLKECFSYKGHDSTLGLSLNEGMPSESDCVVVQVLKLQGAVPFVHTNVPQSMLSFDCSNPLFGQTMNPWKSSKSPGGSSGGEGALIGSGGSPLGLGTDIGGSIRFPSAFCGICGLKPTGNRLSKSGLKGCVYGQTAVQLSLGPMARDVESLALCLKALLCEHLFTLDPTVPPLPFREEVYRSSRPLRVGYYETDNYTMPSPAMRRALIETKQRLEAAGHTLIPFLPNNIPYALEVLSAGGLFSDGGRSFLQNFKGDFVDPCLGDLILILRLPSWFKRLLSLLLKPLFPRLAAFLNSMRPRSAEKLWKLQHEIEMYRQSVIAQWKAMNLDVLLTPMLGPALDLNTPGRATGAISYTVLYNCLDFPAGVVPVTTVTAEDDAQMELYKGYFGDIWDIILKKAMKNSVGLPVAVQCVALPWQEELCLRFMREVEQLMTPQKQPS
Experiment: Assay Method 2: FAAH assay, 3H-anandamide hydrolysis in cell homogenate (SK-N-MC cells transfected with rat FAAH)
Format: biochemical
Details: 3H-AEA 80 nM, rt 1 h, pH 9
Protocol: A. Transfection of Cells with Rat FAAH
(§1) A 10-cm tissue culture dish with a confluent monolayer of SK—N-MC cells was split 2 days (d) prior to transfection. Using sterile technique, the media was removed and the cells were detached from the dish by the addition of trypsin. One fifth of the cells were then placed onto a new 10-cm dish. Cells were grown in a 37° C. incubator with 5% CO2 in Minimal Essential Media Eagle with 10% Fetal Bovine Serum. After 2 d, cells were approximately 80% confluent. These cells were removed from the dish with trypsin and pelleted in a clinical centrifuge. The pellet was re-suspended in 400 μL complete media and transferred to an electroporation cuvette with a 0.4 cm gap between the electrodes. Supercoiled rat FAAH cDNA (1 μg) was added to the cells and mixed. The voltage for the electroporation was set at 0.25 kV, and the capacitance was set at 960 μF. After electroporation, the cells were diluted into complete media (10 mL) and plated onto four 10-cm dishes. Because of the variability in the efficiency of electroporation, four different concentrations of cells were plated. The ratios used were 1:20, 1:10, and 1:5, with the remainder of the cells being added to the fourth dish. The cells were allowed to recover for 24 h before adding the selection media (complete media with 600 μg/mL G418). After 10 d, dishes were analyzed for surviving colonies of cells. Dishes with well-isolated colonies were used. Cells from individual colonies were isolated and tested.
The assay mixture consisted of 50 μL of the cell homogenate, 10 μL of the test compound, and 40 μL of anandamide [1-^3H-ethanolamine] (^3H-AEA, Perkin-Elmer, 10.3 Ci/mmol), which was added last, for a final tracer concentration of 80 nM. The reaction mixture was incubated at rt for 1 h. During the incubation, 96-well Multiscreen filter plates (catalog number MAFCNOB50; Millipore, Bedford, Mass., USA) were loaded with 25 μL of activated charcoal (Multiscreen column loader, catalog number MACL09625, Millipore) and washed once with 100 μL of MeOH. […] After the 1 h incubation, 60 μL of the reaction mixture were transferred to the charcoal plates, which were then assembled on top of the DYNEX plates using Centrifuge Alignment Frames (catalog number MACF09604, Millipore). The unbound labeled ethanolamine was centrifuged through to the bottom plate (5 min at 2000 rpm), which was preloaded with the scintillant, as described above. The plates were sealed and left at rt for 1 h before counting on a Hewlett Packard TopCount.

Row | IC50 [nM] | SMILES
1 | 1.5 | O=C(CCCCCCc1ccccc1)c1ncc(-c2cc(=O)[nH]c(=O)[nH]2)o1 [Example 52, 6-(2-(7-Phenylheptanoyl)oxazol-5-yl)pyrimidine-2,4(1H,3H)-dione]
2 | 27 | NS(=O)(=O)c1cccc(-c2cnc(C(=O)CCCCCCc3ccccc3)o2)c1 [Example 20, 3-(2-(7-Phenylheptanoyl)oxazol-5-yl)benzenesulfonamide]
3 | 3000 | O=C(CCCCCCc1ccccc1)c1ncc(-c2ccccc2C(=O)O)o1 [Example 60, 2-(2-(7-Phenylheptanoyl)oxazol-5-yl)benzoic acid]
4 | 500 | O=C(CCCCCCc1ccccc1)c1ncc(-c2ccccc2[N+](=O)[O-])o1 [Example 1, 1-(5-(2-Nitrophenyl)oxazol-2-yl)-7-phenylheptan-1-one]
5 | 290 | Nc1cccc(-c2cnc(C(=O)CCCCCCc3ccccc3)o2)c1 [Example 28, 1-(5-(3-Aminophenyl)oxazol-2-yl)-7-phenylheptan-1-one]
6 | 2000 | N#Cc1ccccc1-c1cnc(C(=O)CCCCCCc2ccccc2)o1 [Example 16, 2-(2-(7-Phenylheptanoyl)oxazol-5-yl)benzonitrile]
7 | 1800 | NC(=O)c1ccccc1-c1cnc(C(=O)CCCCCCc2ccccc2)o1 [Example 7, 2-(2-(7-Phenylheptanoyl)oxazol-5-yl)benzamide]
8 | 1800 | O=C(CCCCCCc1ccccc1)c1ncc(-c2ccc(O)cc2)o1 [Example 32, 1-(5-(4-Hydroxyphenyl)oxazol-2-yl)-7-phenylheptan-1-one]
9 | 60 | NC(=O)c1ccc(-c2cnc(C(=O)CCCCCCc3ccccc3)o2)cc1 [Example 9, 4-(2-(7-Phenylheptanoyl)oxazol-5-yl)benzamide]
10 | 500 | O=C(CCCCCCc1ccccc1)c1ncc(-c2ccc([N+](=O)[O-])cc2)o1 [Example 3, 1-(5-(4-Nitrophenyl)oxazol-2-yl)-7-phenylheptan-1-one]
11 | 220 | N#Cc1ccc(-c2cnc(C(=O)CCCCCCc3ccccc3)o2)cc1 [Example 18, 4-(2-(7-Phenylheptanoyl)oxazol-5-yl)benzonitrile]

Biological target: T2, FAAH (Homo sapiens, UniProt O00519)
T2 sequence (O00519 1-579): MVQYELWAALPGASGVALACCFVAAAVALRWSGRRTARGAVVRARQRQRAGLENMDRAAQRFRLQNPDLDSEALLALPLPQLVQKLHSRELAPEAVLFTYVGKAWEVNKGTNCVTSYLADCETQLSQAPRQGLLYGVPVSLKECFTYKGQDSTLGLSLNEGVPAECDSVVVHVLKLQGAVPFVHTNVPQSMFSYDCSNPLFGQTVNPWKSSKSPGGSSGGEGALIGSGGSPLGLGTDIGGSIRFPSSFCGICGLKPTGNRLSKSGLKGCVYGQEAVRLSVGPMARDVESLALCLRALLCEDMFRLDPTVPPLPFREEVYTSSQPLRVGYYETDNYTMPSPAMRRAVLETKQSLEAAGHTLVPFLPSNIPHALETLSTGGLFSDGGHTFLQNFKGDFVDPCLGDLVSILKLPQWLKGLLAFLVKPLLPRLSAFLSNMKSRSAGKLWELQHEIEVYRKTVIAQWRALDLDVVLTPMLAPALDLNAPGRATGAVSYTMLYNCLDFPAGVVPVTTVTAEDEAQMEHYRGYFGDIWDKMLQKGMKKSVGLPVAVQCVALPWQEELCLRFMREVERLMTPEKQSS
Experiment: Assay Method 1B: FAAH assay, 3H-anandamide hydrolysis in cell homogenate (T84 or SK-N-MC cells transfected with human FAAH)
Format: biochemical
Set-up: expressed in transfected cells
Details: 3H-AEA 80 nM, rt 1 h, pH 9
Protocol: as §1, with “Transfection of Cells with Human FAAH A 10-cm” for “A 10-cm”, “electrodes. Supercoiled human FAAH cDNA” for “electrodes. Supercoiled rat FAAH cDNA”, “and tested. […] The reaction mixture was incubated at rt for 1 h. During the incubation, 96-well Multiscreen filter plates (catalog number MAFCNOB50; Millipore, Bedford, Mass., USA) were loaded with 25 μL of activated charcoal (Multiscreen column loader, catalog number MACL09625, Millipore) and washed once with 100 μL of MeOH. Also during the incubation, 96-well DYNEX MicroLite plates (catalog number NL510410) were loaded with 100 μL of MicroScint40 (catalog number 6013641, Packard Bioscience, Meriden, Conn., USA). After the 1 h incubation, 60 μL of the reaction mixture were transferred to the charcoal plates, which were then assembled on top of the DYNEX plates using Centrifuge Alignment Frames (catalog number MACF09604, Millipore). The unbound labeled ethanolamine was centrifuged through to the bottom plate (5 min at 2000 rpm), which was preloaded with the scintillant, as described above. The plates were sealed and left at rt for 1 h before counting on a Hewlett Packard TopCount.” for “and tested.”

Row | IC50 [nM] | SMILES
12 | 0.1 | O=C(CCCCCCc1ccccc1)c1ncc(-c2cc(=O)[nH]c(=O)[nH]2)o1 [Example 52, 6-(2-(7-Phenylheptanoyl)oxazol-5-yl)pyrimidine-2,4(1H,3H)-dione]
13 | 4 | NS(=O)(=O)c1cccc(-c2cnc(C(=O)CCCCCCc3ccccc3)o2)c1 [Example 20, 3-(2-(7-Phenylheptanoyl)oxazol-5-yl)benzenesulfonamide]
14 | 440 | O=C(CCCCCCc1ccccc1)c1ncc(-c2ccccc2C(=O)O)o1 [Example 60, 2-(2-(7-Phenylheptanoyl)oxazol-5-yl)benzoic acid]
15 | 340 | O=C(CCCCCCc1ccccc1)c1ncc(-c2ccccc2[N+](=O)[O-])o1 [Example 1, 1-(5-(2-Nitrophenyl)oxazol-2-yl)-7-phenylheptan-1-one]
16 | 17 | Nc1cccc(-c2cnc(C(=O)CCCCCCc3ccccc3)o2)c1 [Example 28, 1-(5-(3-Aminophenyl)oxazol-2-yl)-7-phenylheptan-1-one]
17 | 110 | N#Cc1ccccc1-c1cnc(C(=O)CCCCCCc2ccccc2)o1 [Example 16, 2-(2-(7-Phenylheptanoyl)oxazol-5-yl)benzonitrile]
18 | 160 | NC(=O)c1ccccc1-c1cnc(C(=O)CCCCCCc2ccccc2)o1 [Example 7, 2-(2-(7-Phenylheptanoyl)oxazol-5-yl)benzamide]
19 | 450 | O=C(CCCCCCc1ccccc1)c1ncc(-c2ccc(O)cc2)o1 [Example 32, 1-(5-(4-Hydroxyphenyl)oxazol-2-yl)-7-phenylheptan-1-one]
20 | 10 | NC(=O)c1ccc(-c2cnc(C(=O)CCCCCCc3ccccc3)o2)cc1 [Example 9, 4-(2-(7-Phenylheptanoyl)oxazol-5-yl)benzamide]
21 | 110 | O=C(CCCCCCc1ccccc1)c1ncc(-c2ccc([N+](=O)[O-])cc2)o1 [Example 3, 1-(5-(4-Nitrophenyl)oxazol-2-yl)-7-phenylheptan-1-one]
22 | 290 | N#Cc1ccc(-c2cnc(C(=O)CCCCCCc3ccccc3)o2)cc1 [Example 18, 4-(2-(7-Phenylheptanoyl)oxazol-5-yl)benzonitrile]

Biological target: T3, FAAH (Rattus norvegicus, UniProt P97612)
T3 sequence (P97612 1-579): T1 sequence (P97612 1-579)
Experiment: Assay Method 1A: FAAH enzyme assay, 14C-oleamide hydrolysis, solubilized liver plasma membrane extract;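 further: ki obtained by Dixon analysis, taking the x-intercept of inhibitor concentration versus reciprocal rate plots at fixed substrate level and correcting for substrate concentration relative to Km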
Details: not given

Row | Ki [nM] | SMILES
23 | 19 | O=C(CCCCCCc1ccccc1)c1ncc(-c2cc(=O)[nH]c(=O)[nH]2)o1 [Example 52, 6-(2-(7-Phenylheptanoyl)oxazol-5-yl)pyrimidine-2,4(1H,3H)-dione]
24 | 2 | NS(=O)(=O)c1cccc(-c2cnc(C(=O)CCCCCCc3ccccc3)o2)c1 [Example 20, 3-(2-(7-Phenylheptanoyl)oxazol-5-yl)benzenesulfonamide]
25 | 6000 | O=C(CCCCCCc1ccccc1)c1ncc(-c2ccccc2C(=O)O)o1 [Example 60, 2-(2-(7-Phenylheptanoyl)oxazol-5-yl)benzoic acid]
26 | 125 | O=C(CCCCCCc1ccccc1)c1ncc(-c2ccccc2[N+](=O)[O-])o1 [Example 1, 1-(5-(2-Nitrophenyl)oxazol-2-yl)-7-phenylheptan-1-one]
27 | 19 | Nc1cccc(-c2cnc(C(=O)CCCCCCc3ccccc3)o2)c1 [Example 28, 1-(5-(3-Aminophenyl)oxazol-2-yl)-7-phenylheptan-1-one]
